Results as given in patent publication US20250145665A1, “MACROCYCLIC PEPTIDES USEFUL AS MODULATORS OF TNF ALPHA” (Bristol-Myers Squibb Company, priority 2023, published 2025).
Starred links: 1 amine or outer side, 2 acyl side, 3 side chain; linkers in the order of their positions; H or OH if unused. Positions of bridges follow the written chain, without caps; N, C: chain ends. Non-standard residues stand in square brackets, D forms with d. Residues, ends and D or L forms follow the SMILES beside them. *: point of attachment. Bip(4'-(3-HOOC-benzamido)) = N[C@@H](Cc1ccc(-c2ccc(NC(=O)c3cccc(C(=O)O)c3)cc2)cc1)C(=O)O; X5 = Cn1nc(C(=O)Nc2ccc(-c3ccc(C[C@H](N[*:1])C(=O)[*:2])cc3)cc2)c2ccccc21; Bip(4'-NH) = O=C([C@H](Cc1ccc(-c2ccc(N[*:3])cc2)cc1)N[*:1])[*:2]; Bip(4'-CONHMe) = CNC(=O)c1ccc(-c2ccc(C[C@H](N)C(=O)O)cc2)cc1; Bip(4'-COOH) = N[C@@H](Cc1ccc(-c2ccc(C(=O)O)cc2)cc1)C(=O)O; Bip(4'-NHAc) = CC(=O)Nc1ccc(-c2ccc(C[C@H](N)C(=O)O)cc2)cc1; X11 = CC(=O)N[C@@H](Cc1cn(CC(=O)O)c2ccccc12)C(=O)*; X6 = N=C(NCCCCC(N)=O)NCCC[C@@H](N[*:1])C(=O)[*:2]; Ala(morpholin-4-yl) = N[C@@H](CN1CCOCC1)C(=O)O; Phe(3-CONH2) = NC(=O)c1cccc(C[C@H](N)C(=O)O)c1; X12 = N=C(NCCO)NCCC[C@@H](N[*:1])C(=O)[*:2]; Bip = N[C@@H](Cc1ccc(-c2ccccc2)cc1)C(=O)O; X67 = O=C(O)c1ccc(-c2cccc(C(=O)*)c2)cc1; X75 = O=C(O)Cn1ccc2c(C(=O)*)cccc21; 2Pal = N[C@@H](Cc1ccccn1)C(=O)O; Tic = O=C(O)[C@@H]1Cc2ccccc2CN1; Cha = N[C@@H](CC1CCCCC1)C(=O)O; Tle = CC(C)(C)[C@H](N)C(=O)O; Sar = CNCC(=O)O

target: TNFα (Homo sapiens, UniProt P01375); experiment: TNF-Induced HEK-Blue Assay; format: cell-based; conditions: HEK-Blue-CD40L cells, NF-kB-driven secreted alkaline phosphatase reporter; TNFα 0.5 ng/ml; 18 h; read-out: TNF induced HEK-Blue assay IC50 value
Sequence (P01375 77-233 limits assumed): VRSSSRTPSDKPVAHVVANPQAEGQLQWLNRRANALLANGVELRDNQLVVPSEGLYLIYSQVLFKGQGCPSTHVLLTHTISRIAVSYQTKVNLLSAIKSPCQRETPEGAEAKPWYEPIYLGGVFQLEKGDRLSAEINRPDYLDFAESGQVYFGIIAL

Q: For `CC[C@H](C)[C@@H]1NC(=O)[C@@H]2CCCN2C(=O)[C@H]([C@@H](C)CC)NC(=O)[C@@H](CCCNC(=N)N)NC(=O)[C@H](CC(=O)O)NC(=O)[C@H](Cc2ccccn2)NC(=O)CN(C)C(=O)[C@H](Cc2ccc(-c3ccc(NC(=O)[C@H](Cc4cn(CC(=O)O)c5ccccc45)NC(C)=O)cc3)cc2)NC(=O)[C@H](Cc2ccc(-c3ccccc3)cc2)NC(=O)[C@H](C(C)(C)C)NC(=O)CSC[C@@H](C(=O)NCC(N)=O)NC(=O)[C@H](CC(C)C)NC(=O)[C@H](Cc2cccc(C(N)=O)c2)NC1=O` [Example 379] ({CH2CO}-[Tle][Bip][Bip(4'-NH)](X11)[Sar][2Pal]D[dR]IPI[Phe(3-CONH2)]LCG-NH2; thioether N-13), which IC50 is on record?
A: The IC50 was 0.05 to 0.2 µM.

Q: With `CC(C)C[C@@H]1NC(=O)[C@H](Cc2ccc(O)cc2)NC(=O)[C@H](C(C)C)NC(=O)[C@@H]2Cc3ccccc3CN2C(=O)[C@H](C(C)C)NC(=O)[C@@H](CCCNC(=N)N)NC(=O)[C@H](CC(=O)O)NC(=O)[C@@H]2CCCN2C(=O)CN(C)C(=O)[C@H](Cc2ccc(-c3ccc(NC(=O)c4cccc(-c5ccc(C(=O)O)cc5)c4)cc3)cc2)NC(=O)[C@H](Cc2ccc(-c3ccc(C(=O)O)cc3)cc2)NC(=O)[C@H](CC2CCCCC2)NC(=O)CSC[C@@H](C(=O)NCC(N)=O)NC1=O` [Example 381] ({CH2CO}-[Cha][Bip(4'-COOH)][Bip(4'-NH)](X67)[Sar]PD[dR]V[Tic]VYLCG-NH2; thioether N-13) as the compound, how does the IC50 read?
A: The IC50 was 0.05 to 0.2 µM.

Q: Which IC50 does the source give for `CC(C)C[C@@H]1NC(=O)[C@H](CCCNC(=N)N)NC(=O)[C@H](C(C)C)NC(=O)[C@@H]2CCCN2C(=O)[C@H](C(C)C)NC(=O)[C@@H](CCCNC(=N)N)NC(=O)[C@H](CC(=O)O)NC(=O)[C@@H]2CCCN2C(=O)CN(C)C(=O)[C@H](Cc2ccc(-c3ccc(NC(=O)c4cccc5c4ccn5CC(=O)O)cc3)cc2)NC(=O)[C@H](Cc2ccc(-c3ccccc3)cc2)NC(=O)[C@H](CN2CCOCC2)NC(=O)CSC[C@@H](C(=O)NCC(N)=O)NC1=O` [Example 382] ({CH2CO}-[Ala(morpholin-4-yl)][Bip][Bip(4'-NH)](X75)[Sar]PD[dR]VPVRLCG-NH2; thioether N-13) here?
A: The IC50 was less than 0.05 µM.

Q: `CC(C)C[C@@H]1NC(=O)[C@H](Cc2ccc(O)cc2)NC(=O)[C@H](C(C)C)NC(=O)[C@@H]2Cc3ccccc3CN2C(=O)[C@H](C(C)C)NC(=O)[C@@H](CCCNC(=N)N)NC(=O)[C@H](CC(=O)O)NC(=O)[C@@H]2CCCN2C(=O)CN(C)C(=O)[C@H](Cc2ccc(-c3ccc(NC(=O)c4cccc(C(=O)O)c4)cc3)cc2)NC(=O)[C@H](Cc2ccc(-c3ccc(C(=O)O)cc3)cc2)NC(=O)[C@H](CC2CCCCC2)NC(=O)CSC[C@@H](C(=O)NCC(N)=O)NC1=O` [Example 384] ({CH2CO}-[Cha][Bip(4'-COOH)][Bip(4'-(3-HOOC-benzamido))][Sar]PD[dR]V[Tic]VYLCG-NH2; thioether N-13) was tested. Which IC50 did it give?
A: Its IC50 is 0.05 to 0.2 µM.

Q: How did the IC50 turn out when `CC[C@H](C)[C@@H]1NC(=O)[C@@H]2CCCN2C(=O)[C@H]([C@@H](C)CC)NC(=O)[C@@H](CCCNC(=N)N)NC(=O)[C@H](CC(=O)O)NC(=O)[C@H](Cc2ccccc2)NC(=O)CN(C)C(=O)[C@H](Cc2ccc(-c3ccc(NC(C)=O)cc3)cc2)NC(=O)[C@H](Cc2ccc(-c3ccc(C(=O)NC)cc3)cc2)NC(=O)[C@H](C(C)(C)C)NC(=O)CSC[C@@H](C(=O)NCC(N)=O)NC(=O)[C@H](CC(C)C)NC(=O)[C@H](Cc2cnc[nH]2)NC1=O` [Example 385] ({CH2CO}-[Tle][Bip(4'-CONHMe)][Bip(4'-NHAc)][Sar]FD[dR]IPIHLCG-NH2; thioether N-13) was run?
A: The IC50 was less than 0.05 µM.

Q: With `CNC(=O)c1ccc(-c2ccc(C[C@@H]3NC(=O)[C@H](CC4CCCCC4)NC(=O)CSC[C@@H](C(=O)NCC(N)=O)NC(=O)[C@H](CC(C)C)NC(=O)[C@H](Cc4ccc(O)cc4)NC(=O)[C@H](C(C)C)NC(=O)[C@@H]4Cc5ccccc5CN4C(=O)[C@H](C(C)C)NC(=O)[C@@H](CCCNC(=N)N)NC(=O)[C@H](CC(=O)O)NC(=O)[C@@H]4CCCN4C(=O)CN(C)C(=O)[C@H](Cc4ccc(-c5ccc(NC(C)=O)cc5)cc4)NC3=O)cc2)cc1` [Example 386] ({CH2CO}-[Cha][Bip(4'-CONHMe)][Bip(4'-NHAc)][Sar]PD[dR]V[Tic]VYLCG-NH2; thioether N-13) as the compound, how does the IC50 read?
A: The IC50 was 0.05 to 0.2 µM.

Q: `CC(C)C[C@@H]1NC(=O)[C@H](CCCNC(=N)N)NC(=O)[C@H](C(C)C)NC(=O)[C@@H]2CCCN2C(=O)[C@H](C(C)C)NC(=O)[C@@H](CCCNC(=N)NCCO)NC(=O)[C@H](CC(=O)O)NC(=O)[C@@H]2CCCN2C(=O)CN(C)C(=O)[C@H](Cc2ccc(-c3ccc(NC(=O)c4nn(C)c5ccccc45)cc3)cc2)NC(=O)[C@H](Cc2ccc(-c3ccccc3)cc2)NC(=O)[C@H](CN2CCOCC2)NC(=O)CSC[C@@H](C(=O)NCC(N)=O)NC1=O` [Example 388] ({CH2CO}-[Ala(morpholin-4-yl)][Bip][X5][Sar]PD[X12]VPVRLCG-NH2; thioether N-13) was tested. Which IC50 did it give?
A: Its IC50 is less than 0.05 µM.

Q: For `CC(C)C[C@@H]1NC(=O)[C@H](CCCNC(=N)N)NC(=O)[C@H](C(C)C)NC(=O)[C@@H]2CCCN2C(=O)[C@H](C(C)C)NC(=O)[C@@H](CCCNC(=N)NCCCCC(N)=O)NC(=O)[C@H](CC(=O)O)NC(=O)[C@@H]2CCCN2C(=O)CN(C)C(=O)[C@H](Cc2ccc(-c3ccc(NC(=O)c4nn(C)c5ccccc45)cc3)cc2)NC(=O)[C@H](Cc2ccc(-c3ccccc3)cc2)NC(=O)[C@H](CN2CCOCC2)NC(=O)CSC[C@@H](C(=O)NCC(N)=O)NC1=O` [Example 392] ({CH2CO}-[Ala(morpholin-4-yl)][Bip][X5][Sar]PD[X6]VPVRLCG-NH2; thioether N-13), which IC50 is on record?
A: Its IC50 is 0.05 to 0.2 µM.
